Assays:
[1] = Selectivity index, ratio of CC50 for human MT4 cells to EC50 for antiviral activity against HIV 3B infected in human MT4 cells; type: toxicity, cell-based; settings: read-out: Ratio CC50/EC50
[2] = Selectivity index, ratio of CC50 for human MT4 cells to EC50 for antiviral activity against HIV HIV1 RES056 harboring K103N/Y181C double mutant infected in human MT4 cells; type: toxicity, cell-based; settings: read-out: Ratio CC50/EC50
[3] = test system: Human immunodeficiency virus 1; experiment: Antiviral activity against HIV1 RES056 harboring K103N/Y181C double mutant infected in human MT4 cells assessed as reduction in virus-induced cytopathic effect by MTT assay; type: functional, organism-based; settings: Human immunodeficiency virus 1, RES056, MT4; read-out: EC50
[4] = test system: Human immunodeficiency virus 1; experiment: Antiviral activity against HIV1 3B infected in human MT4 cells assessed as reduction in virus-induced cytopathic effect by MTT assay; type: functional, organism-based; settings: Human immunodeficiency virus 1, 3B
[5] = target: Human immunodeficiency virus type 1 reverse transcriptase (Human immunodeficiency virus 1, UniProt Q72547); experiment: Inhibition of HIV1 reverse transcriptase assessed as reduction in biotin-dUTP incorporation into template incubated for 1 hr by ELISA
[6] = Cytotoxicity against human MT4 cells assessed as reduction in cell viability by MTT assay; type: cell-based; settings: MT4 cells
[7] = test system: Human immunodeficiency virus 1; experiment: Antiviral activity against HIV1 harboring E138K mutant infected in human MT4 cells assessed as reduction in virus-induced cytopathic effect by MTT assay; type: functional, organism-based; settings: Human immunodeficiency virus 1, MT4
[8] = test system: Human immunodeficiency virus 1; experiment: Antiviral activity against HIV1 harboring Y181C mutant infected in human MT4 cells assessed as reduction in virus-induced cytopathic effect by MTT assay; type: functional, organism-based; settings: Human immunodeficiency virus 1, MT4
[9] = test system: Human immunodeficiency virus 1; experiment: Antiviral activity against HIV1 harboring L100I mutant infected in human MT4 cells assessed as reduction in virus-induced cytopathic effect by MTT assay; type: functional, organism-based; settings: Human immunodeficiency virus 1, MT4
[10] = test system: Human immunodeficiency virus 1; experiment: Antiviral activity against HIV1 harboring Y188L mutant infected in human MT4 cells assessed as reduction in virus-induced cytopathic effect by MTT assay; type: functional, organism-based; settings: Human immunodeficiency virus 1, MT4
[11] = test system: Human immunodeficiency virus 1; experiment: Antiviral activity against HIV1 harboring K103N mutant infected in human MT4 cells assessed as reduction in virus-induced cytopathic effect by MTT assay; type: functional, organism-based; settings: Human immunodeficiency virus 1, MT4
[12] = test system: Human immunodeficiency virus 1; experiment: Antiviral activity against HIV1 harboring F227L/V106A mutant infected in human MT4 cells assessed as reduction in virus-induced cytopathic effect by MTT assay; type: functional, organism-based; settings: Human immunodeficiency virus 1, MT4

## Cc1cc(/C=C/C#N)cc(C)c1Oc1ccnc(Nc2ccc(CN3CCCN(S(=O)(=O)N(C)C)CC3)cc2)n1
[1]
  selectivity ratio: 182
[2]
  selectivity ratio: < 1
[3]
  EC50: > 3900 nM
[4]; read-out: EC50
  EC50: 21 nM
[4]; read-out: pEC50 (converted)
  EC50: 20.9 nM
[5]
  IC50: 94 nM
[6]
  CC50: 3900 nM

## Cc1cc(C#N)cc(C)c1Oc1ccnc(Nc2ccc(CN3CCN(S(=O)(=O)N(C)C)CC3)cc2)n1
[1]
  selectivity ratio: 93
[2]
  selectivity ratio: < 1
[3]
  EC50: > 4460 nM
[4]; read-out: EC50
  EC50: 48 nM
[6]
  CC50: 4460 nM

## Cc1cc(C#N)cc(C)c1Oc1ccnc(Nc2ccc(CN3CCCN(S(=O)(=O)N(C)C)CC3)cc2)n1
[1]
  selectivity ratio: 26
[2]
  selectivity ratio: < 1
[3]
  EC50: > 4190 nM
[4]; read-out: EC50
  EC50: 160 nM
[6]
  CC50: 4190 nM

## Cc1cc(/C=C/C#N)cc(C)c1Oc1ccnc(Nc2ccc(CN3CCN(S(=O)(=O)N(C)C)CC3)cc2)n1
[7]
  EC50: 34 nM
[8]
  EC50: 92 nM
[1]
  selectivity ratio: 677
[2]
  selectivity ratio: < 1
[3]
  EC50: > 3070 nM
[4]; read-out: EC50
  EC50: 4.5 nM
[9]
  EC50: 29 nM
[10]
  EC50: > 3070 nM
[11]
  EC50: 11 nM
[12]
  EC50: > 3070 nM
[6]
  CC50: 3070 nM

## Cc1cc(/C=C/C#N)cc(C)c1Oc1ccnc(Nc2ccc(CN3CCCN(S(=O)(=O)C(C)C)CC3)cc2)n1
[1]
  selectivity ratio: 244
[2]
  selectivity ratio: < 1
[3]
  EC50: > 4640 nM
[4]; read-out: EC50
  EC50: 19 nM
[6]
  CC50: 4640 nM

## Cc1cn([C@H]2C[C@H](N=[N+]=[N-])[C@@H](CO)O2)c(=O)[nH]c1=O [ZIDOVUDINE]
[7]
  EC50: 36 nM
[8]
  EC50: 13 nM
[1]
  selectivity ratio: > 293
[2]
  selectivity ratio: > 267
[3]
  EC50: 28 nM
[4]; read-out: EC50
  EC50: 26 nM
[9]
  EC50: 7.1 nM
[10]
  EC50: 8.6 nM
[11]
  EC50: 19 nM
[12]
  EC50: 8.7 nM
[6]
  CC50: > 7480 nM

## O=C1Nc2ccc(Cl)cc2[C@@](C#CC2CC2)(C(F)(F)F)O1 [EFAVIRENZ]
[8]
  EC50: 5 nM
[3]
  EC50: 340 nM
[4]; read-out: EC50
  EC50: 2.8 nM
[4]; read-out: pEC50 (converted)
  EC50: 2.82 nM
[10]
  EC50: 260 nM
[6]
  CC50: > 6340 nM

## Cc1ccnc2c1NC(=O)c1cccnc1N2C1CC1 [NEVIRAPINE]
[7]
  EC50: 170 nM
[8]
  EC50: 5050 nM
[3]
  EC50: > 15000 nM
[4]; read-out: EC50
  EC50: 150 nM
[9]
  EC50: 620 nM
[10]
  EC50: 9070 nM
[12]
  EC50: 8040 nM
[6]
  CC50: > 15000 nM

## Cc1cc(C#N)cc(C)c1Oc1nc(Nc2ccc(C#N)cc2)nc(N)c1Br [ETRAVIRINE]
[7]
  EC50: 9.8 nM
[8]
  EC50: 15 nM
[3]
  EC50: 61 nM
[4]; read-out: EC50
  EC50: 4.2 nM
[4]; read-out: pEC50 (converted)
  EC50: 4.17 nM
[9]
  EC50: 8.3 nM
[10]
  EC50: 19 nM
[12]
  EC50: 26 nM
[6]
  CC50: > 4590 nM

## Cc1cc(C#N)cc(C)c1Oc1ccnc(Nc2ccc(CN3CC[S+]([O-])CC3)cc2)n1
[1]
  selectivity ratio: 3250
[2]
  selectivity ratio: < 1
[3]
  EC50: > 54700 nM
[4]; read-out: EC50
  EC50: 17 nM
[6]
  CC50: 54700 nM

## C=CC(=O)N1CCN(Cc2ccc(Nc3nccc(Oc4c(C)cc(C#N)cc4C)n3)cc2)CC1
[1]
  selectivity ratio: 134
[2]
  selectivity ratio: < 1
[3]
  EC50: > 7580 nM
[4]; read-out: EC50
  EC50: 56 nM
[4]; read-out: pEC50 (converted)
  EC50: 56.2 nM
[5]
  IC50: 160 nM
[6]
  CC50: 7580 nM

## Cc1cc(C#N)cc(C)c1Oc1ccnc(Nc2ccc(CN3CCCN(S(C)(=O)=O)CC3)cc2)n1
[1]
  selectivity ratio: 100
[2]
  selectivity ratio: < 1
[3]
  EC50: > 7850 nM
[4]; read-out: EC50
  EC50: 79 nM
[6]
  CC50: 7850 nM

## Cc1cc(/C=C/C#N)cc(C)c1Oc1ccnc(Nc2ccc(CN3CCCN(S(C)(=O)=O)CC3)cc2)n1
[1]
  selectivity ratio: 644
[2]
  selectivity ratio: < 1
[3]
  EC50: > 17400 nM
[4]; read-out: EC50
  EC50: 27 nM
[6]
  CC50: 17400 nM

## Cc1cc(C#N)cc(C)c1Oc1ccnc(Nc2ccc(CN3CCSCC3)cc2)n1
[1]
  selectivity ratio: 847
[2]
  selectivity ratio: < 1
[3]
  EC50: > 24000 nM
[4]; read-out: EC50
  EC50: 28 nM
[6]
  CC50: 24000 nM

## CCS(=O)(=O)N1CCN(Cc2ccc(Nc3nccc(Oc4c(C)cc(C#N)cc4C)n3)cc2)CC1
[1]
  selectivity ratio: 310
[2]
  selectivity ratio: < 1
[3]
  EC50: > 5240 nM
[4]; read-out: EC50
  EC50: 17 nM
[6]
  CC50: 5240 nM

## C=CC(=O)N1CCN(Cc2ccc(Nc3nccc(Oc4c(C)cc(/C=C/C#N)cc4C)n3)cc2)CC1
[7]
  EC50: 41 nM
[8]
  EC50: 84 nM
[1]
  selectivity ratio: 909
[2]
  selectivity ratio: < 1
[3]
  EC50: > 5210 nM
[4]; read-out: EC50
  EC50: 5.7 nM
[4]; read-out: pEC50 (converted)
  EC50: 5.75 nM
[9]
  EC50: 34 nM
[5]
  IC50: 71 nM
[10]
  EC50: > 5210 nM
[11]
  EC50: 10 nM
[12]
  EC50: 870 nM
[6]
  CC50: 5210 nM

## Cc1cc(C#N)cc(C)c1Oc1ccnc(Nc2ccc(CN3CCN(S(=O)(=O)C(C)C)CC3)cc2)n1
[1]
  selectivity ratio: 152
[2]
  selectivity ratio: < 1
[3]
  EC50: > 4540 nM
[4]; read-out: EC50
  EC50: 30 nM
[4]; read-out: pEC50 (converted)
  EC50: 30.2 nM
[5]
  IC50: 73 nM
[6]
  CC50: 4540 nM

## Nc1ccn([C@@H]2CS[C@H](CO)O2)c(=O)n1 [LAMIVUDINE]
[7]
  EC50: 6110 nM
[8]
  EC50: 3200 nM
[1]
  selectivity ratio: > 15
[2]
  selectivity ratio: > 13
[3]
  EC50: 6830 nM
[4]; read-out: EC50
  EC50: 6000 nM
[9]
  EC50: 1460 nM
[10]
  EC50: 2710 nM
[11]
  EC50: 2740 nM
[12]
  EC50: 2360 nM
[6]
  CC50: > 87200 nM

## Cc1cc(C#N)cc(C)c1Oc1ccnc(Nc2ccc(CN3CCS(=O)(=O)CC3)cc2)n1
[1]
  selectivity ratio: 3850
[2]
  selectivity ratio: < 1
[3]
  EC50: > 53200 nM
[4]; read-out: EC50
  EC50: 14 nM
[4]; read-out: pEC50 (converted)
  EC50: 14.1 nM
[5]
  IC50: 78 nM
[6]
  CC50: 53200 nM

## Cc1cc(/C=C/C#N)cc(C)c1Oc1ccnc(Nc2ccc(CN3CCN(S(=O)(=O)C(C)C)CC3)cc2)n1
[7]
  EC50: 36 nM
[8]
  EC50: 69 nM
[1]
  selectivity ratio: 685
[2]
  selectivity ratio: < 1
[3]
  EC50: > 3810 nM
[4]; read-out: EC50
  EC50: 5.6 nM
[9]
  EC50: 25 nM
[10]
  EC50: > 3810 nM
[11]
  EC50: 8.5 nM
[12]
  EC50: 230 nM
[6]
  CC50: 3810 nM

## Cc1cc(/C=C/C#N)cc(C)c1Oc1ccnc(Nc2ccc(CN3CCN(S(=O)(=O)C4CC4)CC3)cc2)n1
[7]
  EC50: 31 nM
[8]
  EC50: 64 nM
[1]
  selectivity ratio: 717
[2]
  selectivity ratio: < 1
[3]
  EC50: > 4350 nM
[4]; read-out: EC50
  EC50: 6.1 nM
[9]
  EC50: 17 nM
[10]
  EC50: > 4350 nM
[11]
  EC50: 6.8 nM
[12]
  EC50: 360 nM
[6]
  CC50: 4350 nM

## Cc1cc(C#N)cc(C)c1Oc1ccnc(Nc2ccc(CN3CCN(S(=O)(=O)C4CC4)CC3)cc2)n1
[1]
  selectivity ratio: 174
[2]
  selectivity ratio: < 1
[3]
  EC50: > 4430 nM
[4]; read-out: EC50
  EC50: 25 nM
[6]
  CC50: 4430 nM
